Converted amounts (≈) assume the structure as drawn. The source made the active and inactive calls. The calls are words filed in the database; no cut-off is given here.
Columns and labels:
Staphylococcus aureus [1] = assay: Induction of drug resistance in Staphylococcus aureus ATCC6538 assessed as fold change in MIC measured after 10 passages; type: functional
Staphylococcus aureus [2] = assay: Bactericidal activity against Staphylococcus aureus ATCC6538 at 5 ug/ml measured upto 150 mins; type: functional, organism-based; settings: dose 5.0 µg/ml
Staphylococcus aureus [3] = assay: Bactericidal activity against norfloxacin-resistant Staphylococcus aureus ATCC6538 at 5 ug/ml measured upto 150 mins; type: functional, organism-based; settings: dose 5.0 µg/ml
Cell membrane [4] = assay: Disruption of cell membrane integrity in Staphylococcus aureus ATCC6538 assessed as increase in fluorescence intensity measured upto 36 mins ethidium bromide uptake assay; type: cell membranes
Staphylococcus hominis [5] = assay: Bactericidal activity against multidrug-resistant Staphylococcus hominis at 5 ug/ml measured upto 150 mins; type: functional, organism-based; settings: dose 5.0 µg/ml
Cell membrane [6] = assay: Disruption of cell membrane integrity in methicillin resistant Staphylococcus aureus clinical isolate MRS153 assessed as increase in fluorescence intensity measured upto 36 mins ethidium bromide uptake assay; type: cell membranes
Streptomyces albus = assay: Antimicrobial activity against Streptomyces albus SHBC D11158 assessed as reduction in bacterial growth incubated for 24 hrs by two-fold broth dilution method; type: functional
Staphylococcus aureus [7] = assay: Antimicrobial activity against vancomycin-resistant Staphylococcus aureus assessed as reduction in bacterial growth incubated for 24 hrs by two-fold broth dilution method; type: functional
Staphylococcus hominis [8] = assay: Antimicrobial activity against methicillin-resistant Staphylococcus hominis assessed as reduction in bacterial growth incubated for 24 hrs by two-fold broth dilution method; type: functional
Staphylococcus aureus [9] = assay: Antimicrobial activity against methicillin resistant Staphylococcus aureus clinical isolate MRS23 assessed as reduction in bacterial growth incubated for 24 hrs by two-fold broth dilution method; type: functional
[10] = Selectivity index, ratio of IC50 for African green monkey Vero E6 cells to MIC for Staphylococcus aureus ATCC6538; type: toxicity; settings: read-out: Selectivity Index
[11] = Cytotoxicity against African green monkey Vero E6 cells assessed as reduction in cell viability measured after 24 hrs by CCK-8 method; type: toxicity, cell-based, Chlorocebus sabaeus, Vero C1008
[12] = Cytotoxicity against HEK293 cells assessed as reduction in cell viability measured after 24 hrs by CCK-8 method; type: toxicity, cell-based; settings: human
Staphylococcus aureus [13] = assay: Induction of drug resistance in Staphylococcus aureus ATCC6538 assessed as change in MIC measured after 10 passages; type: functional
Staphylococcus aureus [14] = assay: Antimicrobial activity against methicillin resistant Staphylococcus aureus clinical isolate MRS1 assessed as reduction in bacterial growth incubated for 24 hrs by two-fold broth dilution method; type: functional
Staphylococcus aureus [15] = assay: Antimicrobial activity against methicillin resistant Staphylococcus aureus clinical isolate MRS70 assessed as reduction in bacterial growth incubated for 24 hrs by two-fold broth dilution method; type: functional
Staphylococcus aureus [16] = assay: Bactericidal activity against Staphylococcus aureus ATCC6538 assessed as reduction in survival rate at 5 to 10 times MIC measured within 1 hr by colony counting method; type: functional, organism-based
Staphylococcus aureus [17] = assay: Antimicrobial activity against methicillin resistant Staphylococcus aureus clinical isolate MRS152 assessed as reduction in bacterial growth incubated for 24 hrs by two-fold broth dilution method; type: functional
[18] = Cytotoxicity against human HaCaT cells assessed as reduction in cell viability measured after 24 hrs by CCK-8 method; type: toxicity, cell-based
Staphylococcus aureus [19] = assay: Antimicrobial activity against methicillin resistant Staphylococcus aureus clinical isolate MRS108 assessed as reduction in bacterial growth incubated for 24 hrs by two-fold broth dilution method; type: functional
[20] = Selectivity index, ratio of HC50 for rabbit Red blood cell to MIC for Staphylococcus aureus ATCC6538; type: toxicity; settings: red blood cells (erythrocytes), read-out: Selectivity Index
Staphylococcus aureus [21] = assay: Antimicrobial activity against Staphylococcus aureus ATCC6538 assessed as reduction in bacterial growth incubated for 24 hrs by two-fold broth dilution method; type: functional
Staphylococcus aureus [22] = assay: Antimicrobial activity against methicillin resistant Staphylococcus aureus clinical isolate MRS84 assessed as reduction in bacterial growth incubated for 24 hrs by two-fold broth dilution method; type: functional
HeLa = assay: Cytotoxicity against human HeLa cells assessed as reduction in cell viability measured after 24 hrs by CCK-8 method; type: functional, cell-based
Staphylococcus aureus [23] = assay: Antimicrobial activity against methicillin resistant Staphylococcus aureus clinical isolate MRS200 assessed as reduction in bacterial growth incubated for 24 hrs by two-fold broth dilution method; type: functional
Staphylococcus aureus [24] = assay: Antimicrobial activity against Staphylococcus aureus N315 assessed as reduction in bacterial growth incubated for 24 hrs by two-fold broth dilution method; type: functional
Staphylococcus aureus [25] = assay: Antimicrobial activity against methicillin resistant Staphylococcus aureus clinical isolate MRS273 assessed as reduction in bacterial growth incubated for 24 hrs by two-fold broth dilution method; type: functional
Staphylococcus aureus [26] = assay: Antimicrobial activity against methicillin resistant Staphylococcus aureus clinical isolate MRS153 assessed as reduction in bacterial growth incubated for 24 hrs by two-fold broth dilution method; type: functional
[27] = Hemolytic activity in rabbit Red blood cell assessed as hemolysis incubated for 1 hr by two-fold microdilution method; type: toxicity, cell-based, Oryctolagus cuniculus, Erythrocyte; settings: red blood cells (erythrocytes)
Staphylococcus aureus [28] = assay: Antimicrobial activity against methicillin resistant Staphylococcus aureus clinical isolate MRS121 assessed as reduction in bacterial growth incubated for 24 hrs by two-fold broth dilution method; type: functional
Staphylococcus aureus [29] = assay: Antimicrobial activity against methicillin resistant Staphylococcus aureus clinical isolate MRS207 assessed as reduction in bacterial growth incubated for 24 hrs by two-fold broth dilution method; type: functional
Staphylococcus aureus [30] = assay: Antimicrobial activity against methicillin resistant Staphylococcus aureus clinical isolate MRS97 assessed as reduction in bacterial growth incubated for 24 hrs by two-fold broth dilution method; type: functional
A549 = assay: Cytotoxicity against human A549 cells assessed as reduction in cell viability measured after 24 hrs by CCK-8 method; type: functional, cell-based; settings: A549, 24 h
Staphylococcus aureus [31] = assay: Bactericidal activity against methicillin-resistant Staphylococcus aureus clinical isolate MRS97 at 5 ug/ml measured upto 150 mins; type: functional, organism-based; settings: dose 5.0 µg/ml
Staphylococcus aureus [32] = assay: Bactericidal activity against methicillin-resistant Staphylococcus aureus clinical isolate MRS153 at 5 ug/ml measured upto 150 mins; type: functional, organism-based; settings: dose 5.0 µg/ml
Staphylococcus aureus [33] = assay: Bactericidal activity against methicillin-resistant Staphylococcus aureus clinical isolate MRS1 at 5 ug/ml measured upto 150 mins; type: functional, organism-based; settings: dose 5.0 µg/ml
Staphylococcus aureus [34] = assay: Bactericidal activity against Staphylococcus aureus ATCC6538 assessed as reduction in survival rate at 5 to 10 times MIC measured after 30 to 120 mins by colony counting method relative to control; type: functional; settings: time 30-120 min

SMILES	Activity (Staphylococcus aureus [2])	MIC (Streptomyces albus)	MIC (Staphylococcus hominis [8])	MIC (Staphylococcus aureus [9])	selectivity ratio [10]	IC50 at 24 h [11]	IC50 at 24 h [12]	Activity (Staphylococcus aureus [13])	MIC (Staphylococcus aureus [14])	MIC (Staphylococcus aureus [15])	MIC (Staphylococcus aureus [17])	MIC (Staphylococcus aureus [19])	MIC (Staphylococcus aureus [21])	MIC (Staphylococcus aureus [22])	MIC (Staphylococcus aureus [23])	MIC (Staphylococcus aureus [25])	MIC (Staphylococcus aureus [26])	MIC (Staphylococcus aureus [28])	MIC (Staphylococcus aureus [29])	MIC (Staphylococcus aureus [30])	other results
CCn1cc(C(=O)O)c(=O)c2cc(F)c(N3CCNCC3)cc21	Active	–	–	–	–	–	–	–	–	–	–	–	–	–	–	–	–	–	–	–	fold change (FC) (Staphylococcus aureus [1]): 256; Activity (Staphylococcus aureus [3]): inactive
CN[C@H](CC(C)C)C(=O)N[C@H]1C(=O)N[C@@H](CC(N)=O)C(=O)N[C@H]2C(=O)N[C@H]3C(=O)N[C@H](C(=O)N[C@H](C(=O)O)c4cc(O)cc(O)c4-c4cc3ccc4O)[C@H](O)c3ccc(c(Cl)c3)Oc3cc2cc(c3O[C@@H]2O[C@H](CO)[C@@H](O)[C@H](O)[C@H]2O[C@H]2C[C@](C)(N)[C@H](O)[C@H](C)O2)Oc2ccc(cc2Cl)[C@H]1O [VANCOMYCIN]	inactive	2 µg/mL (≈ 1.38 µM)	1 µg/mL (≈ 0.69 µM)	–	–	–	–	–	–	–	–	–	–	–	–	–	–	–	–	–	Activity (Cell membrane [4]): inactive; Activity (Staphylococcus hominis [5]): inactive; Activity (Cell membrane [6]): inactive; MIC (Staphylococcus aureus [7]): ≥ 8 µg/mL
O=C(CCC(F)(F)F)N(Cc1cc2ccccc2s1)c1cc(-c2cccc(C(F)(F)F)c2)ccc1O	–	2 µg/mL (≈ 3.82 µM)	2 µg/mL (≈ 3.82 µM)	6 µg/mL (≈ 11.5 µM)	20	20.3 µg/mL (≈ 38.8 µM)	12.2 µg/mL (≈ 23.4 µM)	inactive	3 µg/mL (≈ 5.73 µM)	6 µg/mL (≈ 11.5 µM)	> 16 µg/mL	6 µg/mL (≈ 11.5 µM)	1 µg/mL (≈ 1.91 µM)	3 µg/mL (≈ 5.73 µM)	6 µg/mL (≈ 11.5 µM)	3 µg/mL (≈ 5.73 µM)	6 µg/mL (≈ 11.5 µM)	3 µg/mL (≈ 5.73 µM)	6 µg/mL (≈ 11.5 µM)	3 µg/mL (≈ 5.73 µM)	Activity (Staphylococcus aureus [16]): Active; IC50 at 24 h [18]: 13 µg/mL (≈ 24.8 µM); selectivity ratio [20]: > 1000; IC50 (HeLa): 13.4 µg/mL (≈ 25.5 µM); MIC (Staphylococcus aureus [24]): 2 µg/mL (≈ 3.82 µM); HC50 at 1 h [27]: 3280 µg/mL; IC50 (A549): 12.5 µg/mL (≈ 23.9 µM)
COc1cccc(OC)c1C(=O)N[C@@H]1C(=O)N2[C@@H]1SC(C)(C)[C@@H]2C(=O)O [METHICILLIN]	–	4 µg/mL (≈ 10.5 µM)	2 µg/mL (≈ 5.26 µM)	8 µg/mL (≈ 21 µM)	–	–	–	–	16 µg/mL (≈ 42.1 µM)	16 µg/mL (≈ 42.1 µM)	8 µg/mL (≈ 21 µM)	16 µg/mL (≈ 42.1 µM)	1 µg/mL (≈ 2.63 µM)	16 µg/mL (≈ 42.1 µM)	> 16 µg/mL	16 µg/mL (≈ 42.1 µM)	> 16 µg/mL	8 µg/mL (≈ 21 µM)	16 µg/mL (≈ 42.1 µM)	8 µg/mL (≈ 21 µM)	Activity (Staphylococcus aureus [31]): inactive; Activity (Staphylococcus aureus [32]): inactive; Activity (Staphylococcus aureus [33]): inactive
O=C(CCC(F)(F)F)N(Cc1cc2ccccc2s1)c1cc(-c2ccc(F)cc2)ccc1O	–	16 µg/mL (≈ 33.8 µM)	8 µg/mL (≈ 16.9 µM)	2 µg/mL (≈ 4.22 µM)	18	17.3 µg/mL (≈ 36.6 µM)	20.7 µg/mL (≈ 43.8 µM)	inactive	6 µg/mL (≈ 12.7 µM)	6 µg/mL (≈ 12.7 µM)	6 µg/mL (≈ 12.7 µM)	2 µg/mL (≈ 4.22 µM)	1 µg/mL (≈ 2.11 µM)	2 µg/mL (≈ 4.22 µM)	6 µg/mL (≈ 12.7 µM)	2 µg/mL (≈ 4.22 µM)	2 µg/mL (≈ 4.22 µM)	2 µg/mL (≈ 4.22 µM)	3 µg/mL (≈ 6.34 µM)	2 µg/mL (≈ 4.22 µM)	IC50 at 24 h [18]: 14.7 µg/mL (≈ 31 µM); selectivity ratio [20]: > 1000; IC50 (HeLa): 16.7 µg/mL (≈ 35.3 µM); MIC (Staphylococcus aureus [24]): 1 µg/mL (≈ 2.11 µM); HC50 at 1 h [27]: 2150 µg/mL; Survival (Staphylococcus aureus [34]): <1%; IC50 (A549): 10 µg/mL (≈ 21.1 µM)

From ChEMBL document CHEMBL5537201, “Discovery of Unique Bis-Substituted Aromatic Amide Derivatives as Novel Highly Potent Antibiotics for Combating Methicillin-Resistant Staphylococcus aureus (MRSA)” (J Med Chem, 2024)
